# In US12466812B2, “Pyridinyltriazine derivative having protein kinase inhibitory activity, and pharmaceutical composition for preventing, ameliorating, or treating cancer comprising same” (KOREA INSTITUTE OF SCIENCE AND TECHNOLOGY, priority 2019, dated 2025):
# How the values were obtained:
# [1] = tested on: AN3-CA, a uterine cancer cell line; assay: Inhibitory activity against cancer cell proliferation (Experimental Example 2); assay type: cell-based; conditions: Homo sapiens, Table 2
# [2] = tested on: KMS-11 (myeloma cell line); assay: Pan-FGFR mutant cellular activity; assay type: cell-based; conditions: Homo sapiens, Table 4
# Method: (§1) The inhibitory activity against pan-FGFR mutants of the compounds synthesized in Examples 1, 8, 13, 22, and 24 was measured, the inhibitory activity on each of enzymatic activity and cellular activity was evaluated, and the results are shown in Tables 3 and 4 below.
# [3] = tested on: UMUC3 (bladder cancer cell line); assay: Pan-FGFR mutant cellular activity; assay type: cell-based; conditions: Homo sapiens, Table 4
# Method: as §1
# [4] = tested on: J82 (bladder cancer cell line); assay: Pan-FGFR mutant cellular activity; assay type: cell-based; conditions: Table 4
# Method: as §1
# AN3-CA = assay: Pan-FGFR mutant cellular activity; assay type: cell-based; conditions: Homo sapiens, mutant cell, Table 4, read-out: GI50, AN3-CA (breast cancer cell line)
# Method: as §1
# FGFR2 mutant (V564F) = FGFR2 mutant (V564F) (Homo sapiens, UniProt P21802, V564F); assay: Pan-FGFR mutant enzymatic activity; assay type: biochemical; conditions: mutant enzyme
# Method: as §1
# FGFR3 mutant (K650E) = FGFR3 mutant (K650E) (Homo sapiens, UniProt P22607, K650E); assay: Pan-FGFR mutant enzymatic activity; assay type: biochemical; conditions: mutant enzyme
# Method: as §1
# FGFR2 mutant (N549H) = FGFR2 mutant (N549H) (Homo sapiens, UniProt P21802, N549H); assay: Pan-FGFR mutant enzymatic activity; assay type: biochemical; conditions: mutant enzyme
# Method: as §1
# FGFR3 mutant (K650M) = FGFR3 mutant (K650M) (Homo sapiens, UniProt P22607, K650M); assay: Pan-FGFR mutant enzymatic activity; assay type: biochemical; conditions: mutant enzyme
# Method: as §1
# FGFR3 mutant (V555M) = FGFR3 mutant (V555M) (Homo sapiens, UniProt P22607, V555M); assay: Pan-FGFR mutant enzymatic activity; assay type: biochemical; conditions: mutant enzyme
# Method: as §1
# [5] = In-vivo PK profile (mouse PK/ICR mice); conditions: plasma, ICR mice, PO 10 mg/kg
# Microsomal stability [6] = assay type: in vitro ADME; conditions: dog liver microsomes, based on sample taken at 0 minutes
# Microsomal stability [7] = assay type: in vitro ADME; conditions: rat liver microsomes, based on sample taken at 0 minutes
# Microsomal stability [8] = assay type: in vitro ADME; conditions: mouse liver microsomes, based on sample taken at 0 minutes
# CYP3A4 = CYP3A4 (Homo sapiens, UniProt P08684); assay: Inhibitory activity against CYP metabolic enzyme; assay type: in vitro ADME
# Method: (§2) In order to determine whether or not there is a possibility that the compounds synthesized in Examples 1, 22, and 24 of the present invention can cause side effects of drug interaction, the rate (%) of inhibition against 5 major metabolic enzymes (CYP1A2, CYP2C9, CYP2C19, CYP2D6, and CYP3A4) among CYPs (cytochrome P450), which are enzymes involved in oxidative metabolism of drugs, was measured. […] That is, it can be seen that the compound of the present invention has a low possibility of causing side effects of drug interaction.
# CYP2C19 = CYP2C19 (Homo sapiens, UniProt P33261); assay: Inhibitory activity against CYP metabolic enzyme; assay type: in vitro ADME
# Method: as §2
# CYP2D6 = CYP2D6 (Homo sapiens, UniProt P10635); assay: Inhibitory activity against CYP metabolic enzyme; assay type: in vitro ADME
# Method: as §2
# CYP1A2 = biological target: T1, CYP1A2 (Homo sapiens, UniProt P05177); assay: Inhibitory activity against CYP metabolic enzyme; assay type: in vitro ADME
# T1 sequence (P05177 1-516): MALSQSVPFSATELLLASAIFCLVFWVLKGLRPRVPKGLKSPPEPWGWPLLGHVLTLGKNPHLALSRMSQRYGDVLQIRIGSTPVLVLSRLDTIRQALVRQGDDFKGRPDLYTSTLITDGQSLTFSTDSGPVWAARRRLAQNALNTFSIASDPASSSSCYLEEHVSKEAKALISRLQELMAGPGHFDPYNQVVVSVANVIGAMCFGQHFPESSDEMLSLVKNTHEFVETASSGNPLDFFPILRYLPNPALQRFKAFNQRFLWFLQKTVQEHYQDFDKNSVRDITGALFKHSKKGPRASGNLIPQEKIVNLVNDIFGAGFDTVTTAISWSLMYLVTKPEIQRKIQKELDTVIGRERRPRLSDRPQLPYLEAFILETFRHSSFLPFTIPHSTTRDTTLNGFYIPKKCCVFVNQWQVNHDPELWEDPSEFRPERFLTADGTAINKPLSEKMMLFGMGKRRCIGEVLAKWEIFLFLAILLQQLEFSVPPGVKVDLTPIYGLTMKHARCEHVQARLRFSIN
# Method: as §2
# Microsomal stability [9] = assay type: in vitro ADME; conditions: human liver microsomes, based on sample taken at 0 minutes
# Sequence of FGFR3 mutant (V555M) (P22607 23-806 V555M): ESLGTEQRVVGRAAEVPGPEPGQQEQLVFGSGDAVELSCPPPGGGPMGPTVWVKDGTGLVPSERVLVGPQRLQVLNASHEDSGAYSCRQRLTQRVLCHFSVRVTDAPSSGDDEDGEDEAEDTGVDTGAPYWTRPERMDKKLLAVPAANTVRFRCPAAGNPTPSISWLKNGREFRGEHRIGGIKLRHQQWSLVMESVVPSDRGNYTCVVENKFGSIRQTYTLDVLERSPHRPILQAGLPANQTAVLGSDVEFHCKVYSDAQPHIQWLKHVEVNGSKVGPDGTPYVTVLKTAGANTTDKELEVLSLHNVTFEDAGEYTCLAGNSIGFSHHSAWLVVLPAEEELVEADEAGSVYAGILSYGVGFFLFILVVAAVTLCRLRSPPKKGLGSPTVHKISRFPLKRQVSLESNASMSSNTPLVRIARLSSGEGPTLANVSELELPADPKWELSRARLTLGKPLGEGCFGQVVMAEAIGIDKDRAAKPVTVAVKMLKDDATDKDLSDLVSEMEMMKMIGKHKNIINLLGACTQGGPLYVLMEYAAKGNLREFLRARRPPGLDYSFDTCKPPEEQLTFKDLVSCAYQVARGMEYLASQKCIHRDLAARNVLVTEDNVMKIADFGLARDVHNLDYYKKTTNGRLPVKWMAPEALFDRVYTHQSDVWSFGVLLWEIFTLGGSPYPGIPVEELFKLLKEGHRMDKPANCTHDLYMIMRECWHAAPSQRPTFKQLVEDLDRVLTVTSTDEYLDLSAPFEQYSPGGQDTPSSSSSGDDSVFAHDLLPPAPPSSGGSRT
# Sequence of FGFR2 mutant (N549H) (P21802 22-821 N549H): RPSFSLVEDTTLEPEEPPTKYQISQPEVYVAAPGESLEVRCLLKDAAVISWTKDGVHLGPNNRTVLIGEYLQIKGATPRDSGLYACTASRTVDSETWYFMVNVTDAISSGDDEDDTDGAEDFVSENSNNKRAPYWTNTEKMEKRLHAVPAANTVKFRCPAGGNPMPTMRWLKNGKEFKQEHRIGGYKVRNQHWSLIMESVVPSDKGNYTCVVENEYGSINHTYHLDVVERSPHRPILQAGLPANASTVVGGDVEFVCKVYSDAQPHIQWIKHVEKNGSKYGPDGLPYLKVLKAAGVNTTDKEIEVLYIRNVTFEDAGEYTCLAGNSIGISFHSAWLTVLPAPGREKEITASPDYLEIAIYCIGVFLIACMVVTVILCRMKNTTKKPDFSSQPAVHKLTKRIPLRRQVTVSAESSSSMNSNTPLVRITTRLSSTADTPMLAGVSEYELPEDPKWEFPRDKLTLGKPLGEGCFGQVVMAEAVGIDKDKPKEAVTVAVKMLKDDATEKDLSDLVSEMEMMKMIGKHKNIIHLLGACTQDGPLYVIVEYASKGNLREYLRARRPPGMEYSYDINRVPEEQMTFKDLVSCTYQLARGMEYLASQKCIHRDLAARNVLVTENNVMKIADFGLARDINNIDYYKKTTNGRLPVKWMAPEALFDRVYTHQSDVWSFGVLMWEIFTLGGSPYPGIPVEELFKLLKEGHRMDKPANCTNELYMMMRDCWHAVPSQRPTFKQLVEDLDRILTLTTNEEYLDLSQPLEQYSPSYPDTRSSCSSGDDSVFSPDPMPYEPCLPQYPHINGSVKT
# Sequence of FGFR3 mutant (K650E) (P22607 23-806 K650E): as the sequence (P22607 23-806 V555M) above, with M533V, K628E counted along it
# Sequence of FGFR2 mutant (V564F) (P21802 22-821 V564F): as the sequence (P21802 22-821 N549H) above, with H528N, V543F counted along it
# Sequence of FGFR3 mutant (K650M) (P22607 23-806 K650M): as the sequence (P22607 23-806 V555M) above, with M533V, K628M counted along it
# Sequence of CYP2C19 (P33261 whole entry): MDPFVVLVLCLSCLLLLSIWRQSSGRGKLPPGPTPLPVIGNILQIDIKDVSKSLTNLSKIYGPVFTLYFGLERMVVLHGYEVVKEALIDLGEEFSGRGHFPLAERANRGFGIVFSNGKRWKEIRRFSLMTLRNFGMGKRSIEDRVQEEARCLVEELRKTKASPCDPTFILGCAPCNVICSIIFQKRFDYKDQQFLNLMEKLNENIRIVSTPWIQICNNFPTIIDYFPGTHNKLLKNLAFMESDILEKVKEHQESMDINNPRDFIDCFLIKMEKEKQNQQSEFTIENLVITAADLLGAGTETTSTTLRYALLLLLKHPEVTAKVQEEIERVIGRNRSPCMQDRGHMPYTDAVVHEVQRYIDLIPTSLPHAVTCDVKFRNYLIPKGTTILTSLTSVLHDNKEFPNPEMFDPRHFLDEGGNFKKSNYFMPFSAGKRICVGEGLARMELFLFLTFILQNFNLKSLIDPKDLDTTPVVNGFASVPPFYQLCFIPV
# Sequence of CYP3A4 (P08684 whole entry): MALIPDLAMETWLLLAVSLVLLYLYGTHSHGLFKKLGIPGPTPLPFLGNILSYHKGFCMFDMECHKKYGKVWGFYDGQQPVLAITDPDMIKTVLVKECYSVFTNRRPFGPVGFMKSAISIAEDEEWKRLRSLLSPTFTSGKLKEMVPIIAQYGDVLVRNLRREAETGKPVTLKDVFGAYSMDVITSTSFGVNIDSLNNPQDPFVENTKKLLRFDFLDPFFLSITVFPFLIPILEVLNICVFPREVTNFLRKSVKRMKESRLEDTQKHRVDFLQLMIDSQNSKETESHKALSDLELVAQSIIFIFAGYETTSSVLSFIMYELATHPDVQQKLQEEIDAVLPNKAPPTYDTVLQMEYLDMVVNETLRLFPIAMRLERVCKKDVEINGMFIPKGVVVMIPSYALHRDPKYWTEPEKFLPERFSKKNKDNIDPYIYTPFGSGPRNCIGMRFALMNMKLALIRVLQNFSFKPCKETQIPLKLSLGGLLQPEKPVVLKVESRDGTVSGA
# Sequence of CYP2D6 (P10635 whole entry): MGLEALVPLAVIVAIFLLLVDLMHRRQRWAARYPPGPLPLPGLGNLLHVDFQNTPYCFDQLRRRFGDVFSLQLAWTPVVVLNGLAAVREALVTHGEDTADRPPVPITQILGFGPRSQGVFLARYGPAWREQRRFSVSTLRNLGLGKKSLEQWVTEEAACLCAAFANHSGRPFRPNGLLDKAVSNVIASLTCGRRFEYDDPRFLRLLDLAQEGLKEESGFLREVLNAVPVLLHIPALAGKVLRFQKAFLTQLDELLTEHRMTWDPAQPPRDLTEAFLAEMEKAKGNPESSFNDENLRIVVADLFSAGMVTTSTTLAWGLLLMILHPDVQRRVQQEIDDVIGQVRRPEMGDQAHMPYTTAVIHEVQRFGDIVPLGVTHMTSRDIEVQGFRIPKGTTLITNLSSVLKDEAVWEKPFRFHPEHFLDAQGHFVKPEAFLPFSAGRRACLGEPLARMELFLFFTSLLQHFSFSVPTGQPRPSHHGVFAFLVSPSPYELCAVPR
smiles,measurement,setting,value
"COc1cc(OC)c(Cl)c(Nc2ncccc2-c2ncnc(N)n2)c1Cl [Example 2, 4-(2-((2,6-dichloro-3,5-dimethoxyphenyl)amino)pyridin-3-yl)-1,3,5-triazin-2-amine]",GI50,[1],< 1 µM
"COc1cc(OC)c(Cl)c(Nc2ncccc2-c2ncnc(NCCN(C)C)n2)c1Cl [Example 3, N^1-(4-(2-((2,6-dichloro-3,5-dimethoxyphenyl)amino)pyridin-3-yl)-1,3,5-triazin-2-yl)-N^2,N^2-dimethylethane-1,2-diamine]",GI50,[1],1 to 10 µM
"COc1cc(OC)c(Cl)c(Nc2ncccc2-c2ncnc(Nc3ccccc3)n2)c1Cl [Example 4, 4-(2-((2,6-dichloro-3,5-dimethoxyphenyl)amino)pyridin-3-yl)-N-phenyl-1,3,5-triazin-2-amine]",GI50,[1],< 1 µM
COc1ccccc1Nc1ncnc(-c2cccnc2Nc2c(Cl)c(OC)cc(OC)c2Cl)n1 [Example 5],GI50,[1],1 to 10 µM
COc1cccc(Nc2ncnc(-c3cccnc3Nc3c(Cl)c(OC)cc(OC)c3Cl)n2)c1 [Example 6],GI50,[1],< 1 µM
"COc1cc(OC)c(Cl)c(Nc2ncccc2-c2ncnc(Nc3ccc(N(C)C)cc3)n2)c1Cl [Example 7, N^1-(4-(2-((2,6-dichloro-3,5-dimethoxyphenyl)amino)pyridin-3-yl)-1,3,5-triazin-2-yl)-N^4,N^4-dimethylbenzene-1,4-diamine]",GI50,[1],< 1 µM
CCN1CCN(c2cccc(Nc3ncnc(-c4cccnc4Nc4c(Cl)c(OC)cc(OC)c4Cl)n3)c2)CC1 [Example 8],GI50,[1],< 1 µM
same,GI50,[2],< 1 µM
same,GI50,[3],1 to 10 µM
same,GI50,[4],1 to 10 µM
same,GI50,AN3-CA,< 1 µM
same,IC50,FGFR2 mutant (V564F),0.1 to 1 µM
same,IC50,FGFR3 mutant (K650E),< 0.1 µM
same,IC50,FGFR2 mutant (N549H),< 0.1 µM
same,IC50,FGFR3 mutant (K650M),< 0.1 µM
same,IC50,FGFR3 mutant (V555M),0.1 to 1 µM
COc1cc(OC)c(Cl)c(Nc2ncccc2-c2ncnc(Nc3ccc(N4CCOCC4)cc3)n2)c1Cl [Example 9],GI50,[1],1 to 10 µM
COc1cc(OC)c(Cl)c(Nc2ncccc2-c2ncnc(Nc3ccc(N4CCOCC4)nc3)n2)c1Cl [Example 10],GI50,[1],< 1 µM
"COc1cc(OC)c(Cl)c(Nc2ncccc2-c2ncnc(Nc3ccc(N4CCN(C(C)=O)CC4)cc3)n2)c1Cl [Example 11, 1-(4-(4-((4-(2-((2,6-dichloro-3,5-dimethoxyphenyl)amino)pyridin-3-yl)-1,3,5-triazin-2-yl)amino)phenyl)piperazin-1-yl)ethan-1-one]",GI50,[1],< 1 µM
COc1cc(OC)c(Cl)c(Nc2ncccc2-c2ncnc(Nc3ccc(N4CCC(O)CC4)cc3)n2)c1Cl [Example 12],GI50,[1],< 1 µM
COc1cc(OC)c(Cl)c(Nc2ncccc2-c2ncnc(Nc3ccc(N4C[C@@H](C)N[C@@H](C)C4)cc3)n2)c1Cl [Example 13],GI50,[1],< 1 µM
same,GI50,[2],< 1 µM
same,GI50,[3],1 to 10 µM
same,GI50,[4],< 1 µM
same,GI50,AN3-CA,< 1 µM
same,IC50,FGFR2 mutant (V564F),0.1 to 1 µM
same,IC50,FGFR3 mutant (K650E),< 0.1 µM
same,IC50,FGFR2 mutant (N549H),< 0.1 µM
same,IC50,FGFR3 mutant (K650M),< 0.1 µM
same,IC50,FGFR3 mutant (V555M),0.1 to 1 µM
COc1cc(N2CCN(C)CC2)ccc1Nc1ncnc(-c2cccnc2Nc2c(Cl)c(OC)cc(OC)c2Cl)n1 [Example 14],GI50,[1],< 1 µM
COc1cc(N2CCOCC2)ccc1Nc1ncnc(-c2cccnc2Nc2c(Cl)c(OC)cc(OC)c2Cl)n1 [Example 15],GI50,[1],> 10 µM
COc1cc(OC)c(Cl)c(Nc2ncccc2-c2ncnc(Nc3ccc(N4CCOCC4)nc3OC)n2)c1Cl [Example 16],GI50,[1],> 10 µM
COc1cc(N2C[C@@H](C)N[C@@H](C)C2)ccc1Nc1ncnc(-c2cccnc2Nc2c(Cl)c(OC)cc(OC)c2Cl)n1 [Example 17],GI50,[1],< 1 µM
COc1cc(OC)c(Cl)c(Nc2ncccc2-c2ncnc(Nc3cnn(C)c3)n2)c1Cl [Example 18],GI50,[1],< 1 µM
"C=CCn1cc(Nc2ncnc(-c3cccnc3Nc3c(Cl)c(OC)cc(OC)c3Cl)n2)cn1 [Example 19, N-(1-allyl-1H-pyrazol-4-yl)-4-(2-((2,6-dichloro-3,5-dimethoxyphenyl)amino)pyridin-3-yl)-1,3,5-triazin-2-amine]",GI50,[1],> 10 µM
"COc1cc(OC)c(Cl)c(Nc2ncccc2-c2ncnc(Nc3cnn(CCCN(C)C)c3)n2)c1Cl [Example 20, 4-(2-((2,6-dichloro-3,5-dimethoxyphenyl)amino)pyridin-3-yl)-N-(1-(3-(dimethylamino)propyl)-1H-pyrazol-4-yl)-1,3,5-triazin-2-amine]",GI50,[1],< 1 µM
"COc1cc(OC)c(Cl)c(Nc2ncccc2-c2ncnc(Nc3cnn(C4CCOCC4)c3)n2)c1Cl [Example 21, 4-(2-((2,6-dichloro-3,5-dimethoxyphenyl)amino)pyridin-3-yl)-N-(1-(tetrahydro-2H-pyran-4-yl)-1H-pyrazol-4-yl)-1,3,5-triazin-2-amine]",GI50,[1],< 1 µM
"COc1cc(OC)c(Cl)c(Nc2ncccc2-c2ncnc(Nc3cnn(C4CCN(C(=O)OC(C)(C)C)CC4)c3)n2)c1Cl [Example 23, Tert-butyl 4-(4-((4-(2-((2,6-dichloro-3,5-dimethoxyphenyl)amino)pyridin-3-yl)-1,3,5-triazin-2-yl)amino)-1H-pyrazol-1-yl) piperidine-1-carboxylate]",GI50,[1],< 1 µM
"COc1cc(OC)c(Cl)c(Nc2ncccc2-c2ncnc(Nc3cnn(C4CCNCC4)c3)n2)c1Cl [Example 24, 4-(2-((2,6-dichloro-3,5-dimethoxyphenyl)amino)pyridin-3-yl)-N-(1-(piperidin-4-yl)-1H-pyrazol-4-yl)-1,3,5-triazin-2-amine]",GI50,[1],< 1 µM
same,Cmax,[5],153 ng/mL
same,MRT inf,[5],7.94 h
same,Tmax,[5],0.42 h
same,half-life,[5],4.83 h
same,"remaining (%) after reaction with the microsome, Dog",Microsomal stability [6],66.9%
same,"remaining (%) after reaction with the microsome, Dog",Microsomal stability [6]; listed as Compound No. 24,66.9%
same,GI50,[2],< 1 µM
same,GI50,[3],1 to 10 µM
same,GI50,[4],1 to 10 µM
same,GI50,AN3-CA,< 1 µM
same,"remaining (%) after reaction with the microsome, Rat",Microsomal stability [7],65.4%
same,"remaining (%) after reaction with the microsome, Rat",Microsomal stability [7]; listed as Compound No. 24,65.43%
same,"remaining (%) after reaction with the microsome, Mouse",Microsomal stability [8],62.1%
same,"remaining (%) after reaction with the microsome, Mouse",Microsomal stability [8]; listed as Compound No. 24,62.1%
same,IC50,FGFR2 mutant (V564F),0.1 to 1 µM
same,IC50,FGFR3 mutant (K650E),< 0.1 µM
same,IC50,FGFR2 mutant (N549H),< 0.1 µM
same,IC50,FGFR3 mutant (K650M),< 0.1 µM
same,IC50,FGFR3 mutant (V555M),0.1 to 1 µM
same,"rate (%) of inhibition, CYP3A4",CYP3A4,44.1%
same,"rate (%) of inhibition, CYP2C19",CYP2C19,51.0%
same,"rate (%) of inhibition, CYP2D6",CYP2D6,>100%
same,"rate (%) of inhibition, CYP1A2",CYP1A2,72.8%
same,"remaining (%) after reaction with the microsome, Human",Microsomal stability [9],62.6%
same,"remaining (%) after reaction with the microsome, Human",Microsomal stability [9]; listed as Compound No. 24,62.6%
